In ChEMBL document CHEMBL4477251, “Vialinin A and thelephantin G, potent inhibitors of tumor necrosis factor-α production, inhibit sentrin/SUMO-specific protease 1 enzymatic activity” (Bioorg Med Chem Lett, 2016) one finds IC50, Ki and inhibition data, which are given here for 6 molecules.

The source made the active and inactive calls. The calls are words filed in the database; no cut-off is given here.

Assay [1] addresses T1, Sentrin-specific protease 1 (Homo sapiens, UniProt Q9P0U3).
T1 sequence (Q9P0U3 whole entry): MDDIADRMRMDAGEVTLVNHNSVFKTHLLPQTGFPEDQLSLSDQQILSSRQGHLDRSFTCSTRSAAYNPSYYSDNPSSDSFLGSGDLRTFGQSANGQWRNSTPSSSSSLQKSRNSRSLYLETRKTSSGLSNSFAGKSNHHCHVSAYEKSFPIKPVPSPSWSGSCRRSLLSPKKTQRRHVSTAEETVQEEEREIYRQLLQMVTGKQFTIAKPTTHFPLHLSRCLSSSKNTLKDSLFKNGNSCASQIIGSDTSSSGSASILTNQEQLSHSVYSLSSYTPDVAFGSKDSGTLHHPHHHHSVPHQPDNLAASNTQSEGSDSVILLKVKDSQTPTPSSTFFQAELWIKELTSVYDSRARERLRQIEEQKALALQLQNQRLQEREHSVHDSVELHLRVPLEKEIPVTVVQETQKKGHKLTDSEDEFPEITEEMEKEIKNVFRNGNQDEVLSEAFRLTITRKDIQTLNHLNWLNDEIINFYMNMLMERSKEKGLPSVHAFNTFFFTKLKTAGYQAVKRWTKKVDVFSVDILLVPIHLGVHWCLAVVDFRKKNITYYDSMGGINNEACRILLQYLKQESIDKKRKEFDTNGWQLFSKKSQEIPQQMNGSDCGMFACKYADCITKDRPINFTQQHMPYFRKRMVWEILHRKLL
In words: Inhibition of recombinant human 6His-tagged SENP1 catalytic domain expressed in Escherichia coli preincubated for 15 mins followed by addition of SUMO1-AMC as substrate measured after 1 hr by fluorescence analysis.

Assay [2] deals with T1, Sentrin-specific protease 1. Description: Inhibition of full-length recombinant human 6His-tagged SENP1 expressed in Escherichia coli BL21 (DE3) preincubated for 15 mins followed by addition of SUMO1-AMC as substrate measured after 1 hr by fluorescence analysis.
In the next assay the test system is Mast cell. Description: Inhibition of TNF-alpha production in mouse bone marrow-derived mast cells measured after 15 mins by ELISA. The settings on record: 0.25 h. The class given is functional, cell-based.
The target in assay [3] is T1, Sentrin-specific protease 1. In words: Binding affinity to recombinant human 6His-tagged SENP1 catalytic domain expressed in Escherichia coli.
The target is the same in assay [4]. Description: Binding affinity to full-length recombinant human 6His-tagged SENP1 expressed in Escherichia coli BL21 (DE3).
The target of assay [5] is T2, Sentrin-specific protease 1 (Homo sapiens) (UniProt Q9P0U3).
T2 sequence (whole entry): T1 sequence (Q9P0U3 whole entry)
In words: Inhibition of SENP1 in human KU812 cells preincubated for 20 mins followed by addition of HA-SUMO1-VS as substrate measured after 2 hrs by immunoblot analysis. It counts as cell-based.

For the next assay, the system named is RBL-2H3. Description: Inhibition of TNF-alpha production in antigen-stimulated rat RBL2H3 cells measured after 15 mins by ELISA. The note with it: RBL-2H3, 0.25 h.

For `Cc1c(C)c(-c2ccc(OCc3cn(CCCCCCNC(=O)CCCC[C@@H]4SC[C@@H]5NC(=O)N[C@@H]54)nn3)cc2)c(O)c(O)c1-c1ccc(O)cc1`, the IC50 in assay [1] is 9.73 µM; in assay [2], greater than 50000 nM.
`O=C(Cc1ccccc1)Oc1c(OC(=O)Cc2ccccc2)c(-c2ccc(O)cc2)c(O)c(O)c1-c1ccc(O)cc1` [VIALININ A]: the half-maximal inhibitory concentration (IC50) was 0.04 nM with Mast cell, 1.89 µM in assay [1] and 1640 nM in assay [2]. Besides, the inhibitory constant (Ki) was found to be 930 nM in assay [3] and 1070 nM in assay [4]. The inhibition result in assay [5] is “Active”.
Consider `O=C1C(O)=C(c2ccc(O)cc2)C(=O)C(O)=C1c1ccc(O)cc1`, for which the 50% inhibitory concentration (IC50) in assay [1] was 6.1 µM; in assay [2] it was 3790 nM.
For `O=C(Cc1ccc(O)cc1)Oc1c(OC(=O)Cc2ccc(O)cc2)c(-c2ccc(O)cc2)c(O)c(O)c1-c1ccc(O)cc1`, the IC50 in the assay with RBL-2H3 worked out at 3.5 nM.
Take `Cc1c(C)c(-c2ccc(O)cc2)c(O)c(O)c1-c1ccc(O)cc1`: the IC50 in assay [1] was 3.76 µM; in assay [2], 2710 nM. Besides, the inhibition entry in assay [5] was “Active”.
As for `CCN1C(=O)C=CC1=O`, the inhibition result in assay [5] was “Active”.
